Results on 49 compounds are retold here after patent US10391095B2, “DNA-PK inhibitors” (Vertex Pharmaceuticals Incorporated, priority 2012, dated 2019).

The test deals with DNA-PK (Homo sapiens, UniProt P78527). Description: DNA-PK inhibition assay (radiometric, 33P-ATP). Format: biochemical. Particulars: 100 μM ATP, competitive tight-binding fit. The method, boiled down: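 Approx. 6 nM DNA-PK with 10 µg/mL sheared dsDNA, 0.8 mg/mL peptide substrate and 100 µM 33P-ATP in HEPES pH 7.5, 10 mM MgCl2; 45 min, phosphoric acid quench. Phosphopeptide captured on filter plates and counted by scintillation; Ki from a competitive tight-binding model fit.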

`CNC(=O)c1ccnc2c([C@H](C)CNc3cc(-c4ccc(C#N)nc4)ncn3)ccc(F)c12` [Compound 909]: the Ki was < 30 nM.

With `CCOc1ccc(-c2cc(NCC(C)c3ccc(C(=O)NC)cc3OC)ncn2)cn1` (stereo not shown) [Compound 322], the Ki was < 30 nM.

Regarding `C[C@H](CNc1cc(-c2ccc(N(C)C)nc2)ncn1)c1ccnc2c1OCCO2` [Compound 460], the inhibitory constant (Ki) was < 30 nM.

As for `COc1ccccc1[C@H](C)CNc1cc(-c2ccc(N3CCCC3)nc2)ncn1` [Compound 84], the inhibition constant Ki is < 30 nM.

In the case of `COc1ccccc1[C@H](C)CNc1cc(-c2ccc(N3CCN(C)CC3)nc2)ncn1` [Compound 32, (S)—N-(2-(2-Methoxyphenyl)propyl)-6-(6-(4-methylpiperazin-1-yl)pyridin-3-yl)pyrimidin-4-amine], the inhibition constant Ki is < 30 nM.

On to `CNC(=O)c1ccnc2c([C@H](C)CNc3cc(-c4ccc(N(C)CCOCC5CC5)nc4)ncn3)cccc12` [Compound 714], for which the inhibition constant (Ki) is < 30 nM.

In the case of `Cc1ccc(-c2cc(NC[C@@H](C)c3cccc4c(C(N)=O)ccnc34)ncn2)cn1` [Compound 494], the inhibition constant Ki is < 30 nM.

With `CC(CNc1cc(-c2cnc3c(cnn3CCO)c2)ncn1)c1cc(F)c(F)cc1OC1CCC1` (stereo not shown) [Compound 382], the inhibitory constant (Ki) is < 30 nM.

With `C[C@H](CNc1cc(-c2ccc(N3CCN(C)CC3)nc2)ncn1)c1ccccc1OC1CC1` [Compound 114], the Ki is < 30 nM.

For `COCCn1ncc2cc(-c3cc(NCC(C)c4sccc4OC)ncn3)cnc21` (stereo not shown) [Compound 260], the Ki is < 30 nM.

As to `CNC(=O)c1ccnc2c([C@H](C)CNc3cc(N4CCn5c(C6CCN(C)CC6)cnc5C4)ncn3)cccc12` [Compound 826], the Ki was < 30 nM.

In the case of `CNc1ncc(-c2cc(NC[C@@H](C)c3ccnc4c3OCC4)ncn2)cn1` [Compound 430], the inhibition constant (Ki) is < 30 nM.

Regarding `CNc1ncc(-c2cc(NC[C@@H](C)c3ccnc4cccnc34)ncn2)cn1` [Compound 497], the Ki was < 30 nM.

As for `CNC(=O)c1ccc(C(C)CNc2cc(-c3ccc(CCOC)cc3)ncn2)c(OC)c1` (stereo not shown) [Compound 340], the Ki was < 30 nM.

In the case of `Cc1cc([C@H](C)CNc2cc(-c3ccc4ncccc4c3)ncn2)c2c(n1)CCO2` [Compound 508], the Ki is < 30 nM.

`CNC(=O)c1ccc([C@H](C)CNc2cc(-c3ccc4c(c3)NC(=O)C4)ncn2)c(OC)c1` [Compound 311]: the inhibition constant Ki is < 30 nM.

Regarding `CNC(=O)c1ccnc2c([C@H](C)CNc3cc(-c4cnc5c(cnn5CCO)c4)ncn3)cccc12` [Compound 580], the Ki was < 30 nM.

Take `CNC(=O)c1ccnc2c([C@H](C)CNc3cc(-c4ccc(C)cc4)ncn3)cccc12` [Compound 671]: the Ki was < 30 nM.

Take `CNC(=O)c1ccc([C@H](C)CNc2cc(-c3ccc(N4CCCC4=O)cc3)ncn2)c(OC)c1` [Compound 313]: the inhibition constant Ki was < 30 nM.

Take `CNC(=O)c1ccc(C(C)CNc2cc(-c3cnc4c(cnn4CCN4CCCC4=O)c3)ncn2)c(OC)c1` (stereo not shown) [Compound 239]: the Ki is < 30 nM.

For `CNC(=O)c1ccc([C@H](C)CNc2cc(-c3ccc(NC4CC4)nc3)ncn2)c(OC)c1` [Compound 388], the Ki is < 30 nM.

As for `CNC(=O)c1ncnc2c([C@H](C)CNc3cc(-c4ccc(C)nc4)ncn3)cccc12` [Compound 971, (S)—N-methyl-8-(1-((6-(6-methylpyridin-3-yl)pyrimidin-4-yl)amino)propan-2-yl)quinazoline-4-carboxamide], the Ki is < 30 nM.

Take `CNC(=O)c1ccnc2c([C@H](C)CNc3cc(-c4cnc(OC5CCCN(C(=O)OC(C)(C)C)C5)nc4)ncn3)cccc12` (stereo partly shown) [Compound 747]: the Ki is < 30 nM.

With `CNC(=O)c1c(F)cnc2c([C@H](C)CNc3cc(-c4cnc(C)nc4)ncn3)ccc(F)c12` [Compound 645], the Ki is < 30 nM.

On to `Cc1ccc(-c2cc(NCC(C)c3cccnc3OC3CCC3)ncn2)cn1` (stereo not shown) [Compound 247], for which the inhibitory constant (Ki) is < 30 nM.

Consider `CN1CCN(c2ccc(-c3cc(NCCc4cccc5c4OCC5)ncn3)cn2)CC1` [Compound 30], for which the inhibitory constant (Ki) is < 30 nM.

`COc1ccccc1CCNc1cc(-c2ccc3c(cnn3C)c2)ncn1` [Compound 79]: the Ki is < 30 nM.

For the compound `CNC(=O)c1ccnc2c([C@H](C)CNc3cc(-c4ccc(OCC5CC5)nc4)ncn3)cccc12` [Compound 891], the Ki was < 30 nM.

For `CNC(=O)c1ccnc2c([C@H](C)CNc3cc(-c4cnc(SC)nc4)ncn3)cccc12` [Compound 800], the Ki is < 30 nM.

In the case of `CNC(=O)c1ccnc2c([C@H](C)CNc3cc(-c4cnc(OC)c(F)c4)ncn3)cccc12` [Compound 881], the inhibition constant (Ki) is < 30 nM.

For `CNC(=O)c1ccc(C(C)CNc2cc(-c3cnc4c(cnn4C4CCN(C)CC4)c3)ncn2)c(OC)c1` (stereo not shown) [Compound 155], the Ki is < 30 nM.

`CNC(=O)c1c(F)cnc2c([C@H](C)CNc3cc(-c4ccc(OCC5CC5)nc4)ncn3)cccc12` [Compound 896]: the Ki is < 30 nM.

As for `[2H]c1nc(C)nc([2H])c1-c1cc(NC[C@@H](C)c2ccc(F)c3c(C(=O)NC)ccnc23)ncn1` [Compound 861], the Ki is < 30 nM.

Consider `Cc1ccc(-c2cc(NCC(C)c3cccc4c3OCCO4)ncn2)cn1` (stereo not shown) [Compound 447], for which the inhibitory constant (Ki) was < 30 nM.

On to `Cc1ncc(-c2cc(NC[C@@H](C)c3cccc4nccnc34)ncn2)cn1` [Compound 662], for which the Ki was < 30 nM.

For `CNC(=O)c1ccnc2c([C@H](C)CNc3cc(-c4ccc(N5CCN(C(C)C)CC5)nc4)ncn3)cccc12` [Compound 722], the inhibition constant (Ki) is < 30 nM.

`CCc1ccc(-c2cc(NC[C@@H](C)c3cccc4c(C(=O)NC)ccnc34)ncn2)cn1` [Compound 789]: the Ki was < 30 nM.

`CNC(=O)c1c(F)cnc2c([C@H](C)CNc3cc(-c4cnc(C#N)c(OC)c4)ncn3)cccc12` [Compound 918]: the Ki was < 30 nM.

With `CNC(=O)c1ccc([C@H](C)CNc2cc(-c3ccc4[nH]c(=O)[nH]c4c3)ncn2)c(OC)c1` [Compound 315], the Ki is < 30 nM.

For the compound `C=C(CNc1cc(-c2ccc(C)nc2)ncn1)c1cccc2c(C(=O)NC)ccnc12` [Compound 467], the Ki is < 30 nM.

Turning to `CNC(=O)c1c(F)cnc2c([C@H](C)CNc3cc(-c4cnc(C(C)(C)OC)nc4)ncn3)cccc12` [Compound 930], the inhibitory constant (Ki) is < 30 nM.

In the case of `CNC(=O)c1c(F)cnc2c([C@H](C)CNc3cc(-c4cnc(OC)c(OC)c4)ncn3)cccc12` [Compound 898], the inhibition constant (Ki) was < 30 nM.

Regarding `CNC(=O)c1ccc(C(C)CNc2cc(-c3cnc4c(cnn4CC#N)c3)ncn2)c(OC)c1` (stereo not shown) [Compound 441], the Ki is < 30 nM.

For the compound `Cc1ccc(-c2cc(NCC(C)c3ccnc4c3OCCN4)ncn2)cn1` (stereo not shown) [Compound 648], the Ki is < 30 nM.

As to `COc1cc(C(=O)NC2CCCC2)ccc1C(C)CNc1cc(-c2ccc(C)nc2)ncn1` (stereo not shown) [Compound 159], the Ki was < 30 nM.

`CNC(=O)c1c(F)cnc2c([C@H](C)CNc3cc(-c4ccc(C)nc4)ncn3)cccc12` [Compound 620]: the Ki is < 30 nM.

Turning to `COc1ccccc1CCNc1cc(-c2cnc3c(ccn3C)c2)ncn1` [Compound 34], the Ki was < 30 nM.

`CNC(=O)c1c(OC)cnc2c([C@H](C)CNc3cc(-c4ccc(C)nc4)ncn3)cccc12` [Compound 762]: the Ki is < 30 nM.

Regarding `CNC(=O)c1ccc([C@H](C)CNc2cc(-c3cnc4c(c3)OCCN4C)ncn2)c(OC)c1` [Compound 490], the Ki is < 30 nM.
